# Assay results as given in patent US20260007681A1, “INDOLE DERIVATIVES AS ESTROGEN RECEPTOR DEGRADERS” (REGENTS OF THE UNIVERSITY OF MICHIGAN, priority 2022, published 2026).
# Molecular target: ER (Homo sapiens (Human), UniProt P03372)
# Test: Western blot analysis (Compounds B1-B278)
# Format: cell-based
# Settings: ER degradation by traditional Western blot; DC50 classes
# Method in brief: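 Relative target-protein levels come from densitometry of immunoblots, normalized to GAPDH. Lysates from treated cells were prepared in RIPA buffer (pH 7.6) containing protease inhibitors, and equal protein amounts, checked by BCA, were separated on 10% gels and blotted onto PVDF.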
# Chain of ER (P03372 whole entry): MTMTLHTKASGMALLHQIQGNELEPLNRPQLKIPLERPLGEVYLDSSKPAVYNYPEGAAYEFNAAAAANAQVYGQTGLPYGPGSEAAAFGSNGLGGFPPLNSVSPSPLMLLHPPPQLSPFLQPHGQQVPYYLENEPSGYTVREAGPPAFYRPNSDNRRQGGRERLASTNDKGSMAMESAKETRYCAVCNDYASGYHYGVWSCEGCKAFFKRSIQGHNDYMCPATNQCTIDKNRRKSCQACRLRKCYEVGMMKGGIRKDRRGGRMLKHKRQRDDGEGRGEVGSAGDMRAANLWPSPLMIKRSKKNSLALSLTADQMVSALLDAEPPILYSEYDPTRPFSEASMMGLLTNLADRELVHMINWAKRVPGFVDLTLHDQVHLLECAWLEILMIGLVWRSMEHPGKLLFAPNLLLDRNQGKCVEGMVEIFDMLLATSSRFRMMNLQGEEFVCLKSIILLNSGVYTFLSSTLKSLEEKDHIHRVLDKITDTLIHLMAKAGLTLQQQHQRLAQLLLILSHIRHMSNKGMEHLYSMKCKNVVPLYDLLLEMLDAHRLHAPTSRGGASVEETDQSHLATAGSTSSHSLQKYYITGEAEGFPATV
row,Structure (SMILES),Traditional Western Degradation Potency
1,"C[C@@H]1Cc2c([nH]c3ccccc23)[C@@H](c2ccc(N3CCC(C(=O)N4CCC(N5Cc6cc7c(cc6C5)C(=O)N(C5CCC(=O)NC5=O)C7=O)CC4)CC3)cc2)N1CC(F)F (stereo partly drawn) [Compound B225, 6-(1-(1-(4-((1R,3R)-2-(2,2-difluoroethyl)-3-methyl-2,3,4,9-tetrahydro-1H-pyrido[3,4-b]indol-1-yl)phenyl)piperidine-4-carbonyl)piperidin-4-yl)-2-(2,6-dioxopiperidin-3-yl)-6,7-dihydropyrrolo[3,4-f]isoindole-1,3(2H,5H)-dione]",B (“B”: 10-100 nM)
2,"C[C@@H]1Cc2c([nH]c3ccccc23)[C@@H](c2ccc(C3=CCC(C(=O)N4CCC(N5Cc6cc7c(cc6C5)C(=O)N(C5CCC(=O)NC5=O)C7=O)CC4)CC3)cc2)N1CC(F)F (stereo partly drawn) [Compound B237, 6-(1-(4′-((1R,3R)-2-(2,2-difluoroethyl)-3-methyl-2,3,4,9-tetrahydro-1H-pyrido[3,4-b]indol-1-yl)-2,3,4,5-tetrahydro-[1,1′-biphenyl]-4-carbonyl)piperidin-4-yl)-2-(2,6-dioxopiperidin-3-yl)-6,7-dihydropyrrolo[3,4-f]isoindole-1,3(2H,5H)-dione]",B (“B”: 10-100 nM)
3,"C[C@@H]1Cc2c([nH]c3ccccc23)[C@@H](c2c(F)cc(N3CC(C(=O)N4CCC(N5Cc6cc7c(cc6C5)C(=O)N(C5CCC(=O)NC5=O)C7=O)CC4)C3)cc2F)N1CC(F)F (stereo partly drawn) [Compound B62, 6-(1-(1-(4-((1R,3R)-2-(2,2-difluoroethyl)-3-methyl-2,3,4,9-tetrahydro-1H-pyrido[3,4-b]indol-1-yl)-3,5-difluorophenyl)azetidine-3-carbonyl)piperidin-4-yl)-2-(2,6-dioxopiperidin-3-yl)-6,7-dihydropyrrolo[3,4-f]isoindole-1,3(2H,5H)-dione]",A (“A”: <10 nM)
4,"C[C@@H]1Cc2c([nH]c3ccccc23)[C@@H](c2ncc(C3=CCC(C(=O)N4CCC(N5Cc6cc7c(cc6C5)C(=O)N(C5CCC(=O)NC5=O)C7=O)CC4)CC3)cc2F)N1CC(F)F (stereo partly drawn) [Compound B109, 6-(1-(4-(6-((1S,3R)-2-(2,2-difluoroethyl)-3-methyl-2,3,4,9-tetrahydro-1H-pyrido[3,4-b]indol-1-yl)-5-fluoropyridin-3-yl)cyclohex-3-ene-1-carbonyl)piperidin-4-yl)-2-(2,6-dioxopiperidin-3-yl)-6,7-dihydropyrrolo[3,4-f]isoindole-1,3(2H,5H)-dione]",C (“C”: >100 nM)
5,"C[C@@H]1Cc2c([nH]c3ccccc23)[C@@H](c2cnc(N3CC4(CCC(CN5Cc6cc7c(cc6C5)C(=O)N(C5CCC(=O)NC5=O)C7=O)CC4)C3)nc2)N1CC(F)F (stereo partly drawn) [Compound B185, 6-((2-(5-((1R,3R)-2-(2,2-difluoroethyl)-3-methyl-2,3,4,9-tetrahydro-1H-pyrido[3,4-b]indol-1-yl)pyrimidin-2-yl)-2-azaspiro[3.5]nonan-7-yl)methyl)-2-(2,6-dioxopiperidin-3-yl)-6,7-dihydropyrrolo[3,4-f]isoindole-1,3(2H,5H)-dione]",C (“C”: >100 nM)
6,"C[C@@H]1Cc2c([nH]c3ccccc23)[C@@H](c2c(F)cc(N3CC4(CC(C(=O)N5CCC(N6Cc7cc8c(cc7C6)C(=O)N(C6CCC(=O)NC6=O)C8=O)CC5)C4)C3)cc2F)N1CC(F)F (stereo partly drawn) [Compound B56, 6-(1-(2-(4-((1R,3R)-2-(2,2-difluoroethyl)-3-methyl-2,3,4,9-tetrahydro-1H-pyrido[3,4-b]indol-1-yl)-3,5-difluorophenyl)-2-azaspiro[3.3]heptane-6-carbonyl)piperidin-4-yl)-2-(2,6-dioxopiperidin-3-yl)-6,7-dihydropyrrolo[3,4-f]isoindole-1,3(2H,5H)-dione]",A (“A”: <10 nM)
7,"C[C@@H]1Cc2c([nH]c3ccccc23)[C@@H](c2c(F)cc(-c3ncc(C(=O)N4CCC(N5Cc6cc7c(cc6C5)C(=O)N(C5CCC(=O)NC5=O)C7=O)CC4)cn3)cc2F)N1CC(F)F (stereo partly drawn) [Compound B92, 6-(1-(2-(4-((1R,3R)-2-(2,2-difluoroethyl)-3-methyl-2,3,4,9-tetrahydro-1H-pyrido[3,4-b]indol-1-yl)-3,5-difluorophenyl)pyrimidine-5-carbonyl)piperidin-4-yl)-2-(2,6-dioxopiperidin-3-yl)-6,7-dihydropyrrolo[3,4-f]isoindole-1,3(2H,5H)-dione]",A (“A”: <10 nM)
8,"C[C@@H]1Cc2c([nH]c3ccccc23)[C@@H](c2ccc(C3=CCC(C(=O)N4CCC(N5Cc6cc7c(cc6C5)C(=O)N(C5CCC(=O)NC5=O)C7=O)CC4)CC3)nc2)N1CC(F)F (stereo partly drawn) [Compound B235, 6-(1-(4-(5-((1R,3R)-2-(2,2-difluoroethyl)-3-methyl-2,3,4,9-tetrahydro-1H-pyrido[3,4-b]indol-1-yl)pyridin-2-yl)cyclohex-3-ene-1-carbonyl)piperidin-4-yl)-2-(2,6-dioxopiperidin-3-yl)-6,7-dihydropyrrolo[3,4-f]isoindole-1,3(2H,5H)-dione]",C (“C”: >100 nM)
9,"C[C@@H]1Cc2c([nH]c3ccccc23)[C@@H](c2c(F)cc(C3CCN(C(=O)[C@H]4CC[C@H](N5Cc6cc7c(cc6C5)C(=O)N(C5CCC(=O)NC5=O)C7=O)CC4)CC3)cc2F)N1CC(F)F (stereo partly drawn) [Compound B106, 6-((1R,4r)-4-(4-(4-((1R,3R)-2-(2,2-difluoroethyl)-3-methyl-2,3,4,9-tetrahydro-1H-pyrido[3,4-b]indol-1-yl)-3,5-difluorophenyl)piperidine-1-carbonyl)cyclohexyl)-2-(2,6-dioxopiperidin-3-yl)-6,7-dihydropyrrolo[3,4-f]isoindole-1,3(2H,5H)-dione]",A (“A”: <10 nM)
10,"C[C@@H]1Cc2c([nH]c3ccccc23)[C@@H](c2c(F)cc(C3CCN(C(=O)C4CCC(N5Cc6cc7c(cc6C5)C(=O)N(C5CCC(=O)NC5=O)C7=O)CC4)CC3)cc2F)N1CC(F)F (stereo partly drawn) [Compound B94, 6-(4-(4-(4-((1R,3R)-2-(2,2-difluoroethyl)-3-methyl-2,3,4,9-tetrahydro-1H-pyrido[3,4-b]indol-1-yl)-3,5-difluorophenyl)piperidine-1-carbonyl)cyclohexyl)-2-(2,6-dioxopiperidin-3-yl)-6,7-dihydropyrrolo[3,4-f]isoindole-1,3(2H,5H)-dione]",B (“B”: 10-100 nM)
11,"C[C@@H]1Cc2c([nH]c3ccccc23)[C@@H](c2c(F)cc(N3CCC4(CC3)CN(C(=O)CN3Cc5cc6c(cc5C3)C(=O)N(C3CCC(=O)NC3=O)C6=O)C4)cc2F)N1CC(F)(F)F (stereo partly drawn) [Compound B200, 6-(2-(7-(3,5-difluoro-4-((1R,3R)-3-methyl-2-(2,2,2-trifluoroethyl)-2,3,4,9-tetrahydro-1H-pyrido[3,4-b]indol-1-yl)phenyl)-2,7-diazaspiro[3.5]nonan-2-yl)-2-oxoethyl)-2-(2,6-dioxopiperidin-3-yl)-6,7-dihydropyrrolo[3,4-f]isoindole-1,3(2H,5H)-dione]",B (“B”: 10-100 nM)

# Further lines, results first:
row,Traditional Western Degradation Potency,Structure (SMILES)
1,C (“C”: >100 nM),"C[C@@H]1Cc2c([nH]c3ccccc23)[C@@H](c2c(F)cc(C(=O)N3CCC4(CCC(CN5Cc6cc7c(cc6C5)C(=O)N(C5CCC(=O)NC5=O)C7=O)CC4)CC3)cc2F)N1CC(F)F (stereo partly drawn) [Compound B99, 6-((3-(4-((1R,3R)-2-(2,2-difluoroethyl)-3-methyl-2,3,4,9-tetrahydro-1H-pyrido[3,4-b]indol-1-yl)-3,5-difluorobenzoyl)-3-azaspiro[5.5]undecan-9-yl)methyl)-2-(2,6-dioxopiperidin-3-yl)-6,7-dihydropyrrolo[3,4-f]isoindole-1,3(2H,5H)-dione]"
2,C (“C”: >100 nM),"C[C@@H]1Cc2c([nH]c3ccccc23)[C@@H](c2ccc(C3CCC4(CC3)CCN(C(=O)CN3Cc5cc6c(cc5C3)C(=O)N(C3CCC(=O)NC3=O)C6=O)CC4)cc2F)N1CC(F)F (stereo partly drawn) [Compound B243, 6-(2-(9-(4-((1R,3R)-2-(2,2-difluoroethyl)-3-methyl-2,3,4,9-tetrahydro-1H-pyrido[3,4-b]indol-1-yl)-3-fluorophenyl)-3-azaspiro[5.5]undecan-3-yl)-2-oxoethyl)-2-(2,6-dioxopiperidin-3-yl)-6,7-dihydropyrrolo[3,4-f]isoindole-1,3(2H,5H)-dione]"
3,C (“C”: >100 nM),"C[C@@H]1Cc2c([nH]c3ccccc23)[C@@H](c2c(F)cc(N3CCC(CN4Cc5cc6c(cc5C4)C(=O)N(C4CCC(=O)NC4=O)C6=O)CC3)cc2F)N1CC(F)F (stereo partly drawn) [Compound B32, 6-((1-(4-((1R,3R)-2-(2,2-difluoroethyl)-3-methyl-2,3,4,9-tetrahydro-1H-pyrido[3,4-b]indol-1-yl)-3,5-difluorophenyl)piperidin-4-yl)methyl)-2-(2,6-dioxopiperidin-3-yl)-6,7-dihydropyrrolo[3,4-f]isoindole-1,3(2H,5H)-dione]"
4,A (“A”: <10 nM),"C[C@@H]1Cc2c([nH]c3ccccc23)[C@@H](c2c(F)cc(N3CCC(CN4CCC(CN5Cc6cc7c(cc6C5)C(=O)N(C5CCC(=O)NC5=O)C7=O)CC4)CC3)cc2F)N1CC(F)F (stereo partly drawn) [Compound B65, 6-((1-((1-(4-((1R,3R)-2-(2,2-difluoroethyl)-3-methyl-2,3,4,9-tetrahydro-1H-pyrido[3,4-b]indol-1-yl)-3,5-difluorophenyl)piperidin-4-yl)methyl)piperidin-4-yl)methyl)-2-(2,6-dioxopiperidin-3-yl)-6,7-dihydropyrrolo[3,4-f]isoindole-1,3(2H,5H)-dione]"
5,B (“B”: 10-100 nM),"C[C@@H]1Cc2c([nH]c3ccccc23)[C@@H](c2c(F)cc(N3CC(F)(C(=O)N4CCC(CN5Cc6cc7c(cc6C5)C(=O)N(C5CCC(=O)NC5=O)C7=O)CC4)C3)cc2F)N1CC(F)F (stereo partly drawn) [Compound B74, 6-((1-(1-(4-((1R,3R)-2-(2,2-difluoroethyl)-3-methyl-2,3,4,9-tetrahydro-1H-pyrido[3,4-b]indol-1-yl)-3,5-difluorophenyl)-3-fluoroazetidine-3-carbonyl)piperidin-4-yl)methyl)-2-(2,6-dioxopiperidin-3-yl)-6,7-dihydropyrrolo[3,4-f]isoindole-1,3(2H,5H)-dione]"
